Measurements taken from ChEMBL document CHEMBL1143093 (Bioorg Med Chem Lett, 2008).

Key:
[1] = biological target: Sodium-dependent noradrenaline transporter (Homo sapiens, UniProt P23975); assay: Inhibition of norepinephrine uptake at human NET expressed in HEK293 cells; type: cell-based
[2] = biological target: Sodium-dependent dopamine transporter (Homo sapiens, UniProt Q01959); assay: Inhibition of dopamine uptake at human DAT expressed in HEK293 cells; type: cell-based
[3] = Metabolic stability in human liver microsomes assessed as systemic clearance; type: ADME, Microsome
[4] = Metabolic stability in rat liver microsomes assessed as systemic clearance; type: ADME, Microsome
[5] = Apparent permeability across human Caco-2 cells; type: ADME, cell-based
[6] = biological target: Sodium-dependent serotonin transporter (Homo sapiens, UniProt P31645)
Sodium-dependent serotonin transporter, sequence (P31645 whole entry): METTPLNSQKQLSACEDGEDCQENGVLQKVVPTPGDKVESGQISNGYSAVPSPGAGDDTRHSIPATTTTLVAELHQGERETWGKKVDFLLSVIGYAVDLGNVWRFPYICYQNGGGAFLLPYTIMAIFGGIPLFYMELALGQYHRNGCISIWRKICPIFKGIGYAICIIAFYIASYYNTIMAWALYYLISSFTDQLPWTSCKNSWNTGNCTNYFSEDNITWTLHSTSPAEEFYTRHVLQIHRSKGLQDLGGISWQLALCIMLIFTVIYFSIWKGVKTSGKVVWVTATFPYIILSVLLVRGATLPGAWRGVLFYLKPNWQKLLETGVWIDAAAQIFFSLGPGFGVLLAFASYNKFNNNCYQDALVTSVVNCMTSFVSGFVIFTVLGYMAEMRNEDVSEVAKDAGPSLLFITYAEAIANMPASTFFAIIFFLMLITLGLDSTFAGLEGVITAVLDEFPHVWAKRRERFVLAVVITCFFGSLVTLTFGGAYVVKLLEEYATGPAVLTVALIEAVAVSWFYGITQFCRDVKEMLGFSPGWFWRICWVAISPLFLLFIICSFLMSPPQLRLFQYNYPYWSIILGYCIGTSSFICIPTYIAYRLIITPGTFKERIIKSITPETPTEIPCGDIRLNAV
Description: Inhibition of serotonin uptake at human SERT expressed in HEK293 cells

[7] = Cmax in rat at 30 mg/kg, po; type: ADME, organism-based; parameters: dose 30 mg/kg, route oral; conditions: in vivo
[8] = Tmax in rat at 30 mg/kg, po; type: ADME, organism-based; parameters: dose 30 mg/kg, route oral; conditions: in vivo
[9] = AUC in rat at 30 mg/kg, po; type: ADME, organism-based; parameters: dose 30 mg/kg, route oral; conditions: plasma
[10] = Drug level in rat brain at 30 mg/kg, po at 1 hr; type: ADME, organism-based; parameters: dose 30 mg/kg, route oral; conditions: read-out: Drug uptake
[11] = Drug level in rat brain at 30 mg/kg, po at 4 hrs; type: ADME, organism-based; parameters: dose 30 mg/kg, route oral; conditions: read-out: Drug uptake
[12] = Ratio of drug level in brain to plasma in rat at 30 mg/kg, po after 1 hr; type: ADME, organism-based; parameters: dose 30 mg/kg, route oral
[13] = Ratio of drug level in brain to plasma in rat at 30 mg/kg, po after 4 hrs; type: ADME, organism-based; parameters: dose 30 mg/kg, route oral
[14] = Lipophilicity, log P of the compound; type: physicochemical; conditions: octanol/water
[15] = Dissociation constant, pKa of the compound; type: physicochemical
[16] = Distribution coefficient, log D of the compound; type: physicochemical; conditions: octanol/water
[17] = Cmax in rat at 10 mg/kg, po; type: ADME, organism-based; parameters: dose 10 mg/kg, route oral; conditions: in vivo
[18] = Tmax in rat at 10 mg/kg, po; type: ADME, organism-based; parameters: dose 10 mg/kg, route oral; conditions: in vivo
[19] = AUC in rat at 10 mg/kg, po; type: ADME, organism-based; parameters: dose 10 mg/kg, route oral; conditions: plasma
[20] = Drug level in rat brain at 10 mg/kg, po at 1 hr; type: ADME, organism-based; parameters: dose 10 mg/kg, route oral; conditions: read-out: Drug uptake
[21] = Drug level in rat brain at 10 mg/kg, po at 4 hrs; type: ADME, organism-based; parameters: dose 10 mg/kg, route oral; conditions: read-out: Drug uptake
[22] = Ratio of drug level in brain to plasma in rat at 10 mg/kg, po after 1 hr
[23] = Ratio of drug level in brain to plasma in rat at 10 mg/kg, po after 4 hrs

Sodium-dependent noradrenaline transporter, sequence (P23975 whole entry): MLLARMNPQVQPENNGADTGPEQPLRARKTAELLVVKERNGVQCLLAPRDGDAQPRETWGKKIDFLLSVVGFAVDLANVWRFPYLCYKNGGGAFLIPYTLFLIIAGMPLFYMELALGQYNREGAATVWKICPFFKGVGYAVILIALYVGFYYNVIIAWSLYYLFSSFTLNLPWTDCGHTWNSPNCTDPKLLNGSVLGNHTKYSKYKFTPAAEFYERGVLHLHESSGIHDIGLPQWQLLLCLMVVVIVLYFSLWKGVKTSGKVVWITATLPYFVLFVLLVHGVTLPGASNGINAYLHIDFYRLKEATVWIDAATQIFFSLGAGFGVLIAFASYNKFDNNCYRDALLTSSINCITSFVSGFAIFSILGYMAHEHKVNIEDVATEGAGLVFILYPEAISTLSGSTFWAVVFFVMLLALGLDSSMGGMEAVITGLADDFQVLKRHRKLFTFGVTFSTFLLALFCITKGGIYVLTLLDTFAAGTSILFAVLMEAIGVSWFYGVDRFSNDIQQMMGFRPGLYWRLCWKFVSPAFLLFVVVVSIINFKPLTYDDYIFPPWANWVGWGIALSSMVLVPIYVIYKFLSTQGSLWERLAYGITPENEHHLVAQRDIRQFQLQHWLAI
Sodium-dependent dopamine transporter, sequence (Q01959 whole entry): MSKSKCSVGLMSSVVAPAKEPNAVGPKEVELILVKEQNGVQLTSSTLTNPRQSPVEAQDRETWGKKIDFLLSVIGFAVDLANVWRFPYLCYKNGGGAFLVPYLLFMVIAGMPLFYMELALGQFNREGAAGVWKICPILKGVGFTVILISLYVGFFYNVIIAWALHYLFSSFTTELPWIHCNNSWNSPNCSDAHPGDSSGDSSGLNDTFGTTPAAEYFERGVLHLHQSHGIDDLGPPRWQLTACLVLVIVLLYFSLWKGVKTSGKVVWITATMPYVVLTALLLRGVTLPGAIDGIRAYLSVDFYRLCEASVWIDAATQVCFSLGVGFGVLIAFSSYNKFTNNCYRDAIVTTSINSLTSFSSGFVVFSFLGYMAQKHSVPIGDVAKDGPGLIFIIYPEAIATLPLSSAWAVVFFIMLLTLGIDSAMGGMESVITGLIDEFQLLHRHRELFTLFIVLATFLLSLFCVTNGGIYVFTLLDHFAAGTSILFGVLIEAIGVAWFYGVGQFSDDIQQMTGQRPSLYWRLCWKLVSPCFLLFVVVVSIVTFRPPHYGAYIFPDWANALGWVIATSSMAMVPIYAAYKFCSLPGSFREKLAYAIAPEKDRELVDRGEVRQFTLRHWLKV

IC50 [1]	IC50 [2]	CLhep predicted [3]	CLhep predicted [4]	Papp [5]	IC50 [6]	SMILES	other results
0.0039 µM	> 10 µM	< 2.6 mL/min/kg	54 mL/min/kg	3.4 ×10⁻⁶ cm/s	0.04 µM	C=C(F)CN(CCOC)C(=O)[C@@]1(c2ccsc2)C[C@H]1CN	–
0.04 µM	> 10 µM	–	–	–	0.52 µM	CCN(CC)C(=O)[C@@]1(c2ccc(Cl)s2)C[C@H]1CN	–
1.5 µM	> 10 µM	–	–	–	3.5 µM	CCN(CC)C(=O)[C@@]1(c2ccccn2)C[C@H]1CN	–
3.7 µM	> 10 µM	–	–	–	–	CCN(CC)C(=O)[C@@]1(c2ccsc2)C[C@H]1CNC	–
0.049 µM	> 10 µM	7.1 mL/min/kg	34 mL/min/kg	4.7 ×10⁻⁶ cm/s	0.83 µM	CCN(CC)C(=O)[C@@]1(c2ccsc2)C[C@H]1CN	–
0.076 µM	> 10 µM	–	–	–	0.52 µM	CCN(CC)C(=O)[C@@]1(c2cccs2)C[C@H]1CN	–
0.11 µM	> 10 µM	–	–	–	0.034 µM	C#CCN(C)C(=O)[C@@]1(c2ccsc2)C[C@H]1CN	–
0.02 µM	> 10 µM	< 2.6 mL/min/kg	52 mL/min/kg	2.4 ×10⁻⁶ cm/s	0.047 µM	C=CCN(CCOC)C(=O)[C@@]1(c2ccsc2)C[C@H]1CN	–
0.012 µM	> 10 µM	13 mL/min/kg	67 mL/min/kg	20 ×10⁻⁶ cm/s	0.34 µM	NC[C@@H]1C[C@@]1(C(=O)N1C=COc2ccccc21)c1ccsc1	–
0.0056 µM	> 10 µM	6.8 mL/min/kg	57 mL/min/kg	6.4 ×10⁻⁶ cm/s	0.14 µM	C=CCN(CC)C(=O)[C@@]1(c2ccsc2)C[C@H]1CN	Cmax [7]: 201 ng/mL; Tmax [8]: 30 min; AUC [9]: 502 ng·h/mL; concentration at 1 h [10]: 39 ng/g; concentration at 4 h [11]: 15 ng/g; Kp at 1 h [12]: 0.3; Kp at 4 h [13]: 0.4; logP [14]: 1.5; pKa [15]: 9.5; logD [16]: 0.1
0.0083 µM	> 10 µM	–	–	–	0.32 µM	NC[C@@H]1C[C@@]1(C(=O)N1CCc2ccccc2C1)c1ccsc1	–
0.1 µM	> 10 µM	–	–	–	0.06 µM	C=CCN(C)C(=O)[C@@]1(c2ccsc2)C[C@H]1CN	–
0.0027 µM	8.3 µM	4.7 mL/min/kg	59 mL/min/kg	9.5 ×10⁻⁶ cm/s	0.076 µM	C=CCN(CC=C)C(=O)[C@@]1(c2ccsc2)C[C@H]1CN	–
2.2 µM	> 10 µM	–	–	–	9.6 µM	CCN(CC)C(=O)[C@@]1(c2nc3ccccc3s2)C[C@H]1CN	–
0.064 µM	> 10 µM	< 2.6 mL/min/kg	18 mL/min/kg	3.2 ×10⁻⁶ cm/s	0.047 µM	C#CCN(CCOC)C(=O)[C@@]1(c2ccsc2)C[C@H]1CN	–
0.27 µM	> 10 µM	–	–	–	2 µM	CCN(CC)C(=O)[C@@]1(c2sc(Cl)c(Cl)c2Cl)C[C@H]1CN	–
1.1 µM	> 10 µM	–	–	–	0.59 µM	COCCN(C)C(=O)[C@@]1(c2ccsc2)C[C@H]1CN	–
0.044 µM	> 10 µM	< 2.6 mL/min/kg	32 mL/min/kg	13.8 ×10⁻⁶ cm/s	0.06 µM	C=C(F)CN(C)C(=O)[C@@]1(c2ccsc2)C[C@H]1CN	–
0.17 µM	> 10 µM	–	–	–	3.1 µM	CCN(CC)C(=O)[C@@]1(c2csc3ccccc23)C[C@H]1CN	–
0.0087 µM	> 10 µM	< 2.6 mL/min/kg	42 mL/min/kg	5.3 ×10⁻⁶ cm/s	0.026 µM	C=CCN(C(=O)[C@@]1(c2ccsc2)C[C@H]1CN)C1CC1	–
1.5 µM	> 10 µM	–	–	–	4 µM	CCN(CC)C(=O)[C@@]1(c2cccnc2)C[C@H]1CN	–
0.2 µM	> 10 µM	–	–	–	1.8 µM	NC[C@@H]1C[C@@]1(C(=O)N1C=CCCC1)c1ccsc1	–
0.0028 µM	> 10 µM	< 2.6 mL/min/kg	44 mL/min/kg	9.6 ×10⁻⁶ cm/s	0.071 µM	C#CCN(CC=C)C(=O)[C@@]1(c2ccsc2)C[C@H]1CN	–
0.065 µM	2.4 µM	–	–	–	0.62 µM	CCN(CC)C(=O)[C@@]1(c2cc3ccccc3s2)C[C@H]1CN	–
0.15 µM	> 10 µM	–	–	–	0.29 µM	CCN(CC)C(=O)[C@@]1(c2cc3cc(F)ccc3s2)C[C@H]1CN	–
0.56 µM	> 10 µM	–	–	–	2.2 µM	CCN(CC)C(=O)[C@@]1(c2cc(Cl)c(Cl)s2)C[C@H]1CN	–
0.02 µM	> 10 µM	–	–	–	0.42 µM	NC[C@@H]1C[C@@]1(C(=O)N1CCCc2ccccc21)c1ccsc1	–
0.029 µM	6.3 µM	–	–	–	0.35 µM	CCN(CC)C(=O)[C@@]1(c2ccc(Br)s2)C[C@H]1CN	–
0.0082 µM	> 10 µM	< 2.6 mL/min/kg	42 mL/min/kg	16.4 ×10⁻⁶ cm/s	0.084 µM	C#CCN(CC#C)C(=O)[C@@]1(c2ccsc2)C[C@H]1CN	–
0.037 µM	6.9 µM	10 mL/min/kg	66 mL/min/kg	4.7 ×10⁻⁶ cm/s	–	NC[C@@H]1C[C@@]1(C(=O)N1Cc2ccccc2C1)c1ccsc1	–

SMILES	IC50 [1]	IC50 [2]	CLhep predicted [3]	CLhep predicted [4]	Papp [5]	IC50 [6]	other results
CCN(CC)C(=O)[C@]1(c2ccccc2)C[C@@H]1CN	–	–	< 2.6 mL/min/kg	18 mL/min/kg	–	–	–
CCN(CC)C(=O)[C@@]1(c2ccccc2)C[C@H]1CN [LEVOMILNACIPRAN]	–	–	–	24 mL/min/kg	–	–	Cmax [17]: 232 ng/mL; Tmax [18]: 18 min; AUC [19]: 566 ng·h/mL; concentration at 1 h [20]: 103 ng/g; concentration at 4 h [21]: 55 ng/g; Kp at 1 h [22]: 0.42; Kp at 4 h [23]: 0.86; pKa [15]: 9.6
CCN(CC)C(=O)[C@@]1(c2ccsc2)C[C@H]1CN(C)C	> 10 µM	> 10 µM	–	–	–	> 10 µM	–
